Activity calls are given as the source filed them.

One test addresses Phospholipase D1 (Homo sapiens, UniProt Q13393). The test is described as follows: PLD1 purified enzyme concentration response. [Related pubchem assays (depositor defined):AID588854]. It is filed as functional.
Another test deals with Phospholipase D2 (Homo sapiens, UniProt O14939). Nature of the test: PLD2 purified enzyme concentration response. [Related pubchem assays (depositor defined):AID588854]. It is filed as functional.
A short description of test [1]: suppression of NO production in INS-1E cells – cell-based, Griess absorbance, dry powder, set 3, dose response (AID 488870). It is filed as functional. As to conditions: Rattus norvegicus. Background: The Griess reaction detects nitrite, a stable product of nitric oxide.
Test [2] concerns INS1. The test is described as follows: beta-cell survival under cytokine stress – INS-1E, ATP luminescence, dry powder, dose response (AID 488844). It is filed as functional, cell-based. As to conditions: Rattus norvegicus.
Test [3] deals with INS1. The test is described as follows: INS-1E mitochondrial potential rescue under cytokines – cell-based, JC-1 fluorescence ratio, dry powder, dose response (AID 488931). The class given is functional. As to conditions: Rattus norvegicus.
The test system of test [4] is INS1. Nature of the test: INS-1E mitochondrial potential loss inhibitors – cell-based, JC-1 fluorescence, dry powder, set 2, dose response (AID 488867). The class given is functional. As to conditions: Rattus norvegicus.
The target in the next test is Major prion protein (Homo sapiens, UniProt P04156). The class given is functional, cell-based.
Test [5] deals with T1, Hexokinase-1 (Homo sapiens, UniProt P19367). The test is described as follows: SAR analysis of small molecule inhibitors of hexokinase domain containing I (HKDC1) in the hexokinase 1 selectivity assay. [Related pubchem assays (depositor defined):AID493160, AID493190]. It is filed as functional.
For test [6], the target named is T2, Hexokinase HKDC1 (Homo sapiens, UniProt Q2TB90).
T2 sequence (Q2TB90 whole entry): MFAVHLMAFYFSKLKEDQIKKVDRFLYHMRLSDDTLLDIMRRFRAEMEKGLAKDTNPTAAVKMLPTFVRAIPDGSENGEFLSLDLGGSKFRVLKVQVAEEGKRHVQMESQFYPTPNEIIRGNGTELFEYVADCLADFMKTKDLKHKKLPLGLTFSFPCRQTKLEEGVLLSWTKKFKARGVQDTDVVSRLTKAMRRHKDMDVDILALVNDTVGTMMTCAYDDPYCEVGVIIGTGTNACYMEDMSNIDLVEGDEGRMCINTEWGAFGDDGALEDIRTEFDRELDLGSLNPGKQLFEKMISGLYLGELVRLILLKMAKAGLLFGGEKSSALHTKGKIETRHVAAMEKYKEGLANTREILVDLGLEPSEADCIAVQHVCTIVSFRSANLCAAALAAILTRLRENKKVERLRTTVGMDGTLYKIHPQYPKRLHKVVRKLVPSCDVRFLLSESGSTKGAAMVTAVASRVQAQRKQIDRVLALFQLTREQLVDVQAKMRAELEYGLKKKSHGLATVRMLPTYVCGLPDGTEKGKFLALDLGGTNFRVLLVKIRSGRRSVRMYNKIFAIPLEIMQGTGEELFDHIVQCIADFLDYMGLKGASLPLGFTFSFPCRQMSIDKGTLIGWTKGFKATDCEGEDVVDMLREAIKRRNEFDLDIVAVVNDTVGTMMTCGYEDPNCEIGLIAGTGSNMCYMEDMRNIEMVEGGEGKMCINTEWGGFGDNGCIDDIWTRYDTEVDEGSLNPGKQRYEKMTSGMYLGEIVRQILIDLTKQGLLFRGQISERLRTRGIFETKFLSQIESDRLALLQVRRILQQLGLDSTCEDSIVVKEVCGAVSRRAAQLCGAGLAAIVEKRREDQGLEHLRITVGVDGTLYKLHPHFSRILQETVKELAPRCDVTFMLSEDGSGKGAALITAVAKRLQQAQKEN
The test is described as follows: SAR analysis of small molecule inhibitors of hexokinase domain containing I (HKDC1). [Related pubchem assays (depositor defined):AID493160, AID493190]. It is filed as functional.

For test [7], the target named is T1, Hexokinase-1. The test is described as follows: hexokinase 1 activity inhibitors, potency – biochemical, set 2, resazurin fluorescence coupled readout, selectivity assay for HKDC1 inhibitor project, SAR follow-up (AID 588356). It is filed as functional. A general note: Resazurin is reduced to fluorescent resorufin, in cell work by metabolically active cells.

Test [8] deals with T2, Hexokinase HKDC1. Nature of the test: analog inhibition of human HKDC1 activity – biochemical, set 2, SAR follow-up (AID 588355). The class given is functional.
A further test addresses Melanocortin receptor 4 (Homo sapiens, UniProt P32245). Nature of the test: inhibitors of MC4R cAMP signaling – cell-based, TR-FRET, biased antagonists, dose response (AID 602298).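 Note: antagonist potency against agonist-stimulated cAMP production.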 The class given is functional.
The target in test [9] is T3, DNA repair protein RAD52 homolog (Homo sapiens, UniProt P43351).
T3 sequence (P43351 whole entry): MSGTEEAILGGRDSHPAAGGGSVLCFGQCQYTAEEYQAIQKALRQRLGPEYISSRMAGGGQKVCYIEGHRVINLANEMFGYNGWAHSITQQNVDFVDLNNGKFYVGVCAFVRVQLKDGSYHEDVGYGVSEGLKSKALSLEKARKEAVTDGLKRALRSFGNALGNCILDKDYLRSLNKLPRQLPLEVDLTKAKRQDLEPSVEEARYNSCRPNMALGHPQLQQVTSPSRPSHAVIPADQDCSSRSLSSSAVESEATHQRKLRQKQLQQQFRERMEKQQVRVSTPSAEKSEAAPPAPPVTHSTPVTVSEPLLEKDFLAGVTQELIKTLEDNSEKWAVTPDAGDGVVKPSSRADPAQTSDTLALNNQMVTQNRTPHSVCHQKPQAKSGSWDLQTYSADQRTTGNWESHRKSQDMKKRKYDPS
It is filed as functional, biochemical.

The nature of test [10]: cAMP pathway inhibition in counterscreen cell line – TR-FRET cAMP detection, counter-screen for MC4R biased antagonist project, dose response (AID 602305).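 Note: U2OS cells stimulated with forskolin near its EC80 as the cAMP inducer; potency is for inhibition of forskolin-stimulated cAMP signaling.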 It is filed as functional, cell-based.
Test [11] has as its target Type-1 angiotensin II receptor (Homo sapiens, UniProt P30556). Nature of the test: antagonism of angiotensin II type 1 receptor – cell-based, uHTS hits, selectivity assay for APJ receptor antagonist project, dose response (AID 463214).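 Note: antagonist potency against angiotensin II stimulated AT1 response.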 The class given is functional.
A further test concerns the target Beta-galactosidase (Escherichia coli, UniProt Q8VNN2). Nature of the test: PubChem AID 485352. The class given is functional.
A further test concerns the target T4, Bcl-2-related protein A1 (Mus musculus, UniProt Q07440).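 Note: confirmatory dose–response counterscreen on Bfl-1, used to check hits from a UBC13 polyubiquitin inhibitor campaign.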
T4 sequence (Q07440 whole entry): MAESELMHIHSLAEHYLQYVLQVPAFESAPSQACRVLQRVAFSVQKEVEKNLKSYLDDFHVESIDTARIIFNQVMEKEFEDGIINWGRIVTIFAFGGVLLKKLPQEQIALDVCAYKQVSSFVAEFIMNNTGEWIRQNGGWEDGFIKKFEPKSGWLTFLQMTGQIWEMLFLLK
The class given is functional.

Test [12] deals with T5, Ubiquitin-conjugating enzyme E2 N (Homo sapiens, UniProt P61088).
T5 sequence (P61088 whole entry): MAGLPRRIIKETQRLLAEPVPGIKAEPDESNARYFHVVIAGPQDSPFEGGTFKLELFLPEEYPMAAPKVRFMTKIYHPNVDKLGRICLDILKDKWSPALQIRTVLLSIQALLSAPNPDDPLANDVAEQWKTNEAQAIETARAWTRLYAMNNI
The class given is functional.

By IC50 is commonly meant the point on the concentration scale where inhibition reaches its midpoint. For `O=C(NCCN1CCC2(CC1)C(=O)NCN2c1ccc(F)c(F)c1)c1ccc2ccccc2c1`, the IC50 on Phospholipase D1 was 20 µM (active); on Phospholipase D2, 0.098 µM (active).

One may read the AC50 as the concentration giving half of the maximal activity seen. Take `COc1ccc(S(=O)(=O)N(C)C[C@H]2Oc3c(NC(=O)Nc4cccc5ccccc45)cccc3C(=O)N([C@H](C)CO)C[C@@H]2C)cc1`: the AC50 is 63.9 µM (active) in test [1], 21.9 µM (active) with INS1 [2], 33.7 µM (active) in the test with INS1 [3] and 43.4 µM (active) in the test with INS1 [4].

As to `O=C(CSc1ncnc2ccccc12)Nc1cccc(S(=O)(=O)N2CCOCC2)c1`, the IC50 at Major prion protein was 9.12 µM (active); at Hexokinase-1 [5] it was > 80 µM (inactive); at Hexokinase HKDC1 [6], > 80 µM (inactive); in “cells” it was > 138 µM (inactive).

For the compound `Cc1ccccc1NC1c2ccccc2C(=O)N1c1ccccc1C` (centres undefined), the IC50 on Hexokinase-1 [7] and at Hexokinase HKDC1 [8] was > 80 µM (inactive) throughout.

The term EC50 denotes the concentration that produces a half-maximal response. In the case of `CCC[C@@H](CN1CCC[C@H]1CN1C(N)=NC[C@H]1CC(C)C)N1C[C@@H](Cc2ccccc2)N(CCc2ccc(Cl)c(Cl)c2)C1=N`, the IC50 was 7.65 µM (active) at Melanocortin receptor 4; > 64.6 µM (inactive) in test [10]; > 40 µM (not active) in test [11]; > 20 µM (inactive) at Bcl-2-related protein A1; 12.5 µM (active) in test [12]. Further, the AC50 in test [9] was 14.7 µM (active). Moreover, at Beta-galactosidase, the EC50 is > 40 µM (inactive).

For the origin of these results see ChEMBL document CHEMBL1201862, “PubChem BioAssay data set” (2004).
